For series [1] the following is noted: cited from earlier work.
Series [2] relates to microtubule network of HeLa cells (mScarlet-α-Tubulin). The series can be described thus: Confocal microscopy of HeLa cells transfected with mScarlet-α-Tubulin. It is filed as cell-based. Conditions: 1 h at 37° C. Here is the method:
(FIG. 28C) Characterization of fluorescent microtubule phenotypes in HeLa cells transiently transfected with mScarlet-a-Tubulin and treated with the microtubule modulators (1 h at 37° C.). […] Scale bars=10 μm.
Cells were washed with PBS before treatment with PB-GABA-Taxol (100 nM) and (±)-verapamil hydrochloride (100 μM), with or without paclitaxel (10 μM) as a competitor, in phenol red-free DMEM supplemented with 10% FBS. Cells were incubated at 37° C. for 3 h prior to imaging by confocal microscopy. For experiments using HeLa cells transfected with mScarlet-α-tubulin, transient transfection was performed using a Invitrogen Lipofectamine 3000 Transfection kit (Thermo, L3000-075). Transfection used a 1× dose of lipid in OptiMEM (4% FBS) for 18 hours before washing of cells with PBS and treatment with the microtubule modulator for 1 h at 37° C.

Series [3] deals with crosslinked / purified microtubules. Conditions: previously reported; read-out: biochemical Ki for microtubules; cited from earlier work.
The next series concerns the target albumin (Homo sapiens, UniProt P02768). Conditions: cited from earlier work.
Series [4] relates to microtubules (taxane binding site) in living HeLa cells. The series can be described thus: Competition binding assay with PB-GABA-Taxol in living HeLa cells (cellular Ki). As to conditions: for Ki: read-out: cellular Ki, PB-GABA-Taxol 1.5 μM, verapamil 100 μM, 37° C., 4% FBS, 3 h.
Experimental: In this assay the cellular Kd was measured by varying the concentration of the fluorescent probe added to cells at equilibrium as established by kinetic assays of probe uptake. Total binding of this probe to specific and non-specific sites in cells in the presence of the efflux inhibitor verapamil was determined by flow cytometry. Non-specific binding was quantified separately by addition of excess paclitaxel with the probe under the same conditions. Subtraction of the linear non-specific binding contribution from the total binding curve was used analyze specific binding of the probe to tubulin of microtubules. Measurement of this cellular dissociation constant under equilibrium conditions further allowed conversion of the half-maximal inhibitory concentration (IC50) of unlabeled compounds into cellular inhibitory constants using an adaptation of the Cheng-Prusoff equation^44 for competitive modulators (Ki) or the allosteric equation^45 for non-competitive modulators (Kb and the cooperativity factor α) as implemented by GraphPad Prism.
Series [5] has as its system Taxol binding site in living cells. Conditions: previously reported; read-out: Ki by confocal microscopy; cited from earlier work.
The target in series [6] is PKC 11 (C1B domain, tyrosine at the 22 position). As to conditions: phosphatidyl serine present, read-out: binding affinity (Kd) for DAG, cited from earlier work.

Values joined by “and” are separate entries in the source; they are usually repeats but may differ in a detail not shown here. Identical values can stand only once. Like-named read-outs stand apart in the source and are kept apart here.

Chain of albumin (P02768 25-609, species assumed): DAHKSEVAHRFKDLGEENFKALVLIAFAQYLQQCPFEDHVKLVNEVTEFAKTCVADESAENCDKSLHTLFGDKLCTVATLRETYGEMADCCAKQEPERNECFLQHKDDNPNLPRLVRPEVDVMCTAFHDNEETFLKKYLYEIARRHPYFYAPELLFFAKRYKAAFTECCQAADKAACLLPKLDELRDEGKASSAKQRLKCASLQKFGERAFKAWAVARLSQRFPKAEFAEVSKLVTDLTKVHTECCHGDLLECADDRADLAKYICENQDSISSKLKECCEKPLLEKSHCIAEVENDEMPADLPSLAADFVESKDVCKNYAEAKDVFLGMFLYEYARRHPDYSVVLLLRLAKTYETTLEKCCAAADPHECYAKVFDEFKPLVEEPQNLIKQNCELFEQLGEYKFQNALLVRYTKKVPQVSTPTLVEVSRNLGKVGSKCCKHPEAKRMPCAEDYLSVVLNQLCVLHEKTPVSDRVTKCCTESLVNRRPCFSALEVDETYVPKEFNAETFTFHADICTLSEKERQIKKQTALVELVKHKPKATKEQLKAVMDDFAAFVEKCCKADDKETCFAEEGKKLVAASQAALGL

With `O=C(O)c1cc2cc(F)c(O)c(F)c2oc1=O` [Pacific Blue™], the “phenol pKa” value in series [1] is on record as 3.7.
Take `CC(=O)O[C@H]1C(=O)[C@@]2(C)[C@H]([C@H](OC(=O)c3ccccc3)[C@]3(O)C[C@H](OC(=O)[C@H](O)[C@@H](NC(=O)c4ccccc4)c4ccccc4)C(C)=C1C3(C)C)[C@]1(OC(C)=O)CO[C@@H]1C[C@@H]2O` [paclitaxel]: the fluorescent microtubule phenotype entry in series [2] is “increased numbers of microtubule fibers”. In addition, the Ki is 19 nM and 27 nM and 31 nM in series [3]; 22 nM in series [4]. The Kd at albumin was 120 nM. Besides, the entries for the “decrease of apparent affinity vs incubation for 3 h or 4 h” value in series [4] (incubation 1 h) and in series [4] (incubation 2 h) were 3 fold and 2 fold, respectively. In series [4] (probe concentration 3 μM), the “underestimation of cellular Ki” value is 12 fold. The figures for the “decrease of apparent affinity (cellular Ki) by ligand depletion” value in series [4] (σ=15% (150 nM β-tubulin/well)) and in series [4] (σ=30% (300 nM β-tubulin/well)) were 2.3 fold and 4.7 fold, respectively.
Take `C/C(=C\c1csc(C)n1)[C@@H]1C[C@@H]2O[C@]2(C)CCC[C@H](C)[C@H](O)[C@@H](C)C(=O)C(C)(C)[C@@H](O)CC(=O)N1` [ixabepilone]: the Ki in series [5] is 7.6 ± 1.6 nM; in series [4], 10 nM.
As to diacylglycerol [DAG], the figures for the dissociation constant (Kd) in series [6] (tyrosine at the 22 position) and in series [6] (tyrosine changed into tryptophan) were 780000 nM and 24000 nM, respectively.

Broadly, the Ki is the equilibrium dissociation constant of an inhibitor or competing ligand from its target. By Kd is commonly meant the concentration at which binding is half-saturated.

(Values after patent US20230146870A1, “METHOD TO QUANTIFY AFFINITY AND SELECTIVITY OF SMALL MOLECULES FOR PROTEINS IN LIVING CELLS” (Ohio State Innovation Foundation, priority 2021, published 2023).)
